The supplement of paper PMC11451515

Columns and labels:
Assay in all cases: AUC of viability dose-response curve (% viability x log10 dose units); higher = less sensitive
Settings in all cases: 48 h
[1] = system: NOMO1
Outline: (§1)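 In 1536-well plates, leukemia cells adapted to each medium (500 or 1000 cells/well) were exposed for 48 h at 37°C to library compounds in DMSO across 11 threefold doses, 47 μM down to 0.79 nM. Viability was read by CellTiter-Glo One luminescence and normalised per plate to DMSO and cell-free wells. A four-parameter log-logistic fit over log10 doses was integrated by trapezoidal rule. This yielded the area under the curve, with over-full-viability curves scaled and quality-control failures dropped.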

[2] = system: P12-Ichikawa
Outline: as §1

[3] = system: SEM cells
Outline: as §1

[4] = RPMI 5 mM glucose + 10% dialyzed FBS

Compound | AUC of viability dose-response curve ([1]; HPLM + 10% dialyzed FBS) | AUC of viability dose-response curve ([1]; RPMI 5 mM glucose + 10% FBS) | AUC of viability dose-response curve [1, 4] | AUC of viability dose-response curve ([2]; HPLM + 10% dialyzed FBS) | AUC of viability dose-response curve ([2]; RPMI 5 mM glucose + 10% FBS) | AUC of viability dose-response curve [2, 4] | AUC of viability dose-response curve ([3]; HPLM + 10% dialyzed FBS) | AUC of viability dose-response curve ([3]; RPMI 5 mM glucose + 10% FBS) | AUC of viability dose-response curve [3, 4]
CN(C)C/C=C/C(=O)Nc1ccc(C(=O)Nc2cccc(Nc3ncc(Cl)c(-c4c[nH]c5ccccc45)n3)c2)cc1 | 248 | 248 | 235 | 240 | 234 | 247 | – | – | –
N[S+](=O)([O-])c1ccc(Nc2nc(OCC3CCCCC3)c3[nH]cnc3n2)cc1 | 330 | 346 | 357 | – | – | – | 307 | 276 | 298
CC(C(C)N1CC(=O)NC(=O)C1)N1CC(=O)NC(=O)C1 (configuration not stated) | 459 | 468 | 471 | 454 | 425 | 447 | 422 | 351 | 401
Cc1ccc(Nc2cc(-c3cccc(N4C(=O)c5ccccc5C4=O)c3)ncn2)cc1N[S+](C)(=O)[O-] | 461 | 473 | 469 | 466 | 465 | 474 | 468 | 463 | 468
C[C@H](CCC(=O)O)[C@H]1CC[C@H]2[C@@H]3[C@H](O)C[C@@H]4C[C@H](O)CC[C@]4(C)[C@H]3CC[C@]12C | 443 | 436 | 409 | 448 | 431 | 418 | 417 | 406 | 433
C[C@]1(O)CC(C1)C2=NC(=C3[N]2C=CN=C3N)C4=CC5=C(C=C4)C=CC(=N5)C6=CC=CC=C6 (configuration not stated) | 321 | 319 | 301 | 396 | 358 | 366 | – | – | –
CC/C=C\C[C@H]1C(=O)CC[C@@H]1CC(=O)OC | 470 | 440 | 449 | 460 | 451 | 470 | 469 | 451 | 461
C=CC(=O)Nc1cc2c(Nc3ccc(F)c(Cl)c3)ncnc2cc1C#CC(C)(C)N1CCN(C)CC1 | 382 | 395 | 387 | 395 | 395 | 383 | 360 | 357 | 363
CN(C)CCCC1(c2ccc(F)cc2)OCc2cc(C#N)ccc21 (configuration not stated) | 425 | 431 | 392 | 433 | 415 | 425 | 447 | 426 | 432
CCCOc1ccc(C(=O)OCCN(CC)CC)cc1N | 465 | 468 | 464 | 453 | 448 | 446 | – | – | –
Cc1ccc2nc(NCCN)c3ncc(C)n3c2c1 | 446 | 422 | 437 | 458 | 455 | 460 | 413 | 440 | 430
Nc1nc(F)nc2c1ncn2[C@@H]1O[C@H](COP(=O)(O)O)[C@@H](O)[C@@H]1O | 420 | 456 | 448 | 448 | 460 | 454 | 353 | 398 | 352
C/C1=C2/[N]3[Co+]456([OH])<-[N]7=C1[C@@H](CCC(N)=O)C(C)(C)/C7=C/C1=[N]->4C(=C(/C)C4=[N]->5[C@@](C)([C@H]3[C@H](CC(N)=O)[C@@]2(C)CCC(=O)NC[C@@H](C)OP(=O)([O-])O[C@H]2[C@@H](O)[C@@H](n3c[n]->6c5cc(C)c(C)cc53)O[C@@H]2CO)[C@@](C)(CC(N)=O)[C@@H]4CCC(N)=O)/[C@@](C)(CC(N)=O)[C@@H]1CCC(N)=O | 434 | 426 | 443 | – | – | – | 433 | 414 | 460
CNc1nc(-c2ccc3c(N)n[nH]c3c2)cc(N2C[C@@H](C(=O)NC3CCCCC3)CC[C@H]2C)n1 | 350 | 359 | 364 | 395 | 319 | 336 | – | – | –
Oc1cc(-c2nc(-c3ccccc3)[nH]c2-c2ccncc2)ccc1Cl | 394 | 451 | 420 | 438 | 424 | 419 | 464 | 461 | 467
Nc1n[nH]c2nnc(-c3c(-c4ccccc4)nn4ccccc34)cc12 | 378 | 354 | 379 | 404 | 403 | 429 | 446 | 449 | 455
C[C@H](NC(=O)Cc1cc(F)cc(F)c1)C(=O)N[C@H](C(=O)OC(C)(C)C)c1ccccc1 | 448 | 397 | 432 | 432 | 428 | 390 | 418 | 456 | 415
O=C1NC(=O)/C(=C/c2ccc3nccnc3c2)S1 | 457 | 444 | 439 | 464 | 443 | 453 | 441 | 441 | 428
CN1CCc2c(c3ccccc3n2Cc2ccc(C(=O)NO)cc2)C1 | 373 | 358 | 397 | 401 | 370 | 377 | 348 | 364 | 310
NCCCC(N)(C(=O)O)C(F)F (configuration not stated) | 454 | 443 | 461 | 462 | 448 | 449 | 446 | 460 | 461
COc1cc2c(cc1OC)[C@@H]1Cc3ccc(OC)c(OC)c3CN1CC2 | 452 | 458 | 464 | 467 | 444 | 461 | 473 | 449 | 477
C[C@@H]1[C@H]\2[C@H](O)[C@H]3[C@H](N(C)C)\C(=C(C(N)=O)/C(=O)[C@@]3(O)\C(=C2C(=O)C4=C(O)C=CC=C14)O)O | 470 | 465 | 472 | 473 | 462 | 462 | 468 | 473 | 440

Compound | AUC of viability dose-response curve ([1]; HPLM + 10% dialyzed FBS) | AUC of viability dose-response curve ([1]; RPMI 5 mM glucose + 10% FBS) | AUC of viability dose-response curve [1, 4] | AUC of viability dose-response curve ([2]; HPLM + 10% dialyzed FBS) | AUC of viability dose-response curve ([2]; RPMI 5 mM glucose + 10% FBS) | AUC of viability dose-response curve [2, 4] | AUC of viability dose-response curve ([3]; HPLM + 10% dialyzed FBS) | AUC of viability dose-response curve ([3]; RPMI 5 mM glucose + 10% FBS) | AUC of viability dose-response curve [3, 4]
CC1(C)SCCN([S+](=O)([O-])c2ccc(OCC#CCO)cc2)[C@H]1C(=O)NO | 462 | 437 | 450 | 456 | 454 | 438 | 449 | 413 | 439
COc1ccc(F)c(F)c1C(=O)c1cnc(NC2CCN([S+](C)(=O)[O-])CC2)nc1N | 367 | 380 | 380 | 401 | 358 | 360 | 351 | 344 | 381
CC1(C)CC\C2=C(/O1)C3=C(C=CC=C3)C(=O)C2=O | 449 | 446 | 451 | 449 | 447 | 450 | 437 | 436 | 401
CCC(CCCC)COC(=O)C(\C#N)=C(\c1ccccc1)c2ccccc2 (configuration not stated) | 465 | 439 | 431 | 463 | 469 | 460 | 438 | 425 | 449
CC(C)C1CCC(C(=O)N[C@H](Cc2ccccc2)C(=O)O)CC1 (some centres not stated) | 409 | 418 | 446 | 452 | 435 | 419 | 394 | 401 | 422
OC(=O)\C1=C\N(C2CC2)C3=CC(=C(F)C=C3C1=O)N4CCNCC4 | 404 | 428 | 422 | 451 | 456 | 455 | – | – | –
Cc1cc(Nc2cc(N3CCN(C)CC3)nc(/C=C/c3ccccc3)n2)n[nH]1 | 340 | 334 | 345 | 320 | 333 | 333 | 264 | 261 | 255
Nc1ccc(C(=O)c2cc3c(ccc4ccccc43)[nH]2)cc1 | 412 | 425 | 417 | 348 | 359 | 359 | 374 | 373 | 361
O=C(O)CCCCCC(=O)NN=C1CCCC1 | 433 | 414 | 453 | 467 | 468 | 447 | 456 | 468 | 461
CO[C@H]1CCC(O[C@H]2C[C@H]([C@]3(C)CC[C@]4(C[C@H](O)[C@@H](C)[C@@H]([C@@H](C)/C=C(\C)C(=O)[C@H](C)C[C@H](C)C(=O)[O-])O4)O3)O[C@]3(O[C@@H]([C@H]4O[C@@](O)(CO)[C@H](C)C[C@@H]4C)C[C@@H]3C)[C@@H]2C)O[C@@H]1C (some centres not stated) | 405 | 449 | 415 | 353 | 366 | 376 | 368 | 352 | 344
Cc1c(N)nc([C@H](CC(N)=O)NC[C@@H](N)C(N)=O)nc1C(=O)N[C@H](C(=O)N[C@@H](C)[C@H](O)[C@@H](C)C(=O)N[C@@H](C(=O)NCCc1nc(-c2nc(C(=O)NCCC[S+](C)C)cs2)cs1)[C@@H](C)O)C(O[C@H]1O[C@H](CO)[C@H](O)[C@@H](O)[C@H]1O[C@H]1O[C@H](CO)[C@@H](O)[C@H](OC(N)=O)[C@@H]1O)c1c[nH]cn1 (some centres not stated) | 394 | 416 | 434 | 411 | 378 | 424 | 415 | 382 | 384
Cc1cc(Nc2ncc3c(n2)N(C)C(=O)N(c2cc(NC(=O)c4cccc(C(F)(F)F)c4)ccc2C)C3)n(C)n1 | 341 | 362 | 357 | 399 | 374 | 381 | 293 | 278 | 277
COc1cc(C(=O)NC2CCN(C)CC2)ccc1Nc1ncc2c(n1)N(C1CCCC1)CCC(=O)N2C(C)C | 432 | 442 | 457 | 406 | 410 | 411 | – | – | –
C[S+](=O)([O-])Oc1ccc2c(NC(N)=O)c(C(=O)c3ccc(Cl)cc3Cl)oc2c1 | 449 | 460 | 462 | 455 | 463 | 466 | 433 | 442 | 464
CCCCCNC(=N)N/N=C/c1c[nH]c2ccc(OC)cc12 | 440 | 442 | 441 | 429 | 429 | 436 | 426 | 424 | 428
CCOC(=O)N1CCN(/[N+]([O-])=N/Oc2cc(O/N=[N+](\[O-])N3CCN(C(=O)OCC)CC3)c([N+](=O)[O-])cc2[N+](=O)[O-])CC1 | 476 | 460 | 463 | 460 | 476 | 450 | 449 | 464 | 474
Clc2cccc(Cl)c2\N=C1/NCCN1 | 455 | 474 | 468 | 446 | 448 | 452 | 414 | 407 | 429
CO[C@H]1/C=C/O[C@@]2(C)Oc3c(C)c(O)c4c(c3C2=O)C2=NC3(CCN(CC(C)C)CC3)NC2=C(NC(=O)/C(C)=C/C=C/[C@H](C)[C@H](O)[C@@H](C)[C@@H](O)[C@@H](C)[C@H](OC(C)=O)[C@@H]1C)C4=O | 471 | 476 | 466 | 469 | 466 | 471 | – | – | –
CCNC(=O)Nc1ccc(Oc2ncnc(N)c2/C=N/OC)cc1Cl | 460 | 459 | 441 | 477 | 458 | 471 | – | – | –
c1cc(-c2cnn3cc(-c4ccc(OCCN5CCCCC5)cc4)cnc23)ccn1 | 388 | 397 | 394 | 416 | 395 | 406 | – | – | –
C[C@]12CCC3c4ccc(O)cc4CCC3C1CCC2=O (some centres not stated) | 429 | 424 | 420 | 441 | 447 | 395 | – | – | –
CCN(CC)CCNC(=O)c1c(C)[nH]c(/C=C2\C(=O)Nc3ccc(F)cc32)c1C | 257 | 265 | 271 | 248 | 266 | 257 | – | – | –
